Results reported in patent US4006237A, “Tetrahydrocarbostyril derivatives for the prophylaxis of asthma, hayfever and rhinitis” (Beecham Group Limited, priority 1973, dated 1977).

System: rat PCA response
Test: Rat Passive Cutaneous Anaphylaxis (PCA) test
Assay type: in vivo, rat (male Wistar serum donors; Wistar test rats)
Procedure: Some of the substituted 4-hydroxy-3-nitro-α-pyridones prepared in the previous examples were submitted for biological testing. The test system was the Rat Passive Cutaneous Anaphylaxis (PCA) test described below in (ii).
i. Serum containing heat labile homocytotropic antibody was raised in rats by a method similar to that used by Mota. (I. Mota Immunology 1964, 7, 681).
Male Wistar rats of 250- 300g, were injected intraperitoneally with 0.5ml of Bordatella pertussis vaccine (containing 4 × 10^10 dead organism per ml) and subcutaneously with 0.5ml of an emulsion of 100mg of ovalbumin in 2ml of saline and 3ml of incomplete Freunds' adjuvant. Rats were bled by cardiac puncture on day 18, the blood was pooled and separated and serum stored at -20° C and thawed only once before use.
ii. The P.C.A. test was similar to that described by Ovary and Bier (A. Ovary and O. E. Bier, Proc. Soc. Exp. Biol.Med.1952, 81, 584) and Goose and Blair (J. Goose and A. M. J. N. Blair, Immunology 1969, 16, 769).
0.1ml. of each six twofold serial dilutions of the serum in 0.9% saline were injected intradermally into separate sites on the shaved dorsal surface of 250-350 g Wistar rats. 72 hours later the animals were challenged by i.v. injection of 0.3ml of 1% ovalbumin mixed with 0.1ml of a 5% solution of pontamine sky blue dye both in isotonic saline buffered with pH 7.2 Sorenson buffer (P.B.S.). The rats were killed after 20 minutes and the diameter of the blue wheals at the antibody injection sites were measured. The starting dilution of the serum was adjusted so that there was no response, after challenge, at the site of injection of the highest dilution and a maximum response at the lowest dilution. Typically, six twofold serial dilutions of the serum from 1/4 to 1/128 were used.
Compounds were tested for their ability to reduce the diameter of the wheals at the injection sites of dilutions of antibody which on all the controls have less than maximum response. Amounts of the compounds were administered to rats each amount to a test group of six animals at a specified time prior to intravenous challenge with ovalbumin. The diameters of the blue wheals which developed on the test group of animals were compared with those on a control group of six animals treated in the same way as the test group, but which had not received the compound under test.
% Inhibition of P.C.A. = 100 (1 - (a/b))
a = The mean of the sum of the diameters of the wheels produced in the test group of animals at those antibody sites where all the control group of animals gave less than maximum response.
b = The mean of the sum of diameters of the wheals produced in the control group of animals at those antibody sites where all the animals in the group gave less than the maximum response.
The compounds were administered either as a solution of the free nitro compound or as a solution or suspension in 1% methyl cellulose of the sodium salt.

[1] = time 30 mins prior to challenge
[2] = time 60 mins prior to challenge
[3] = time 10 mins prior to challenge

Structure (SMILES)	inhibition in vivo at 25 mg/kg (time 0 mins prior to challenge)	inhibition in vivo at 25 mg/kg [1]	inhibition in vivo at 100 mg/kg (time 0 mins prior to challenge)	inhibition in vivo at 100 mg/kg [1]	inhibition in vivo at 25 mg/kg [2]	inhibition in vivo at 100 mg/kg [2]	inhibition in vivo at 25 mg/kg [3]	inhibition in vivo at 100 mg/kg [3]
O=c1[nH]c2c(c(O)c1[N+](=O)[O-])CCCC2 [Example 1, 4-Hydroxy-3-nitro-5,6,7,8-tetrahydrocarbostyril]	16%	15%	70%	20%				
CCn1c2c(c(O)c([N+](=O)[O-])c1=O)CCC(C)C2 (centres unmarked) [Example 11, 1-Ethyl-4-hydroxy-7-methyl-3-nitro-5,6,7,8-tetrahydrocarbostyril]	8%	38%	31%	57%				
O=c1[nH]c2c(c(O)c1[N+](=O)[O-])CCCCC2 [Example 4, 5,6-cycloheptenyl-4-hydroxy-3-nitro-α-pyridone]	-10%		-3%		1%	27%		
O=c1[nH]c2c(c(O)c1[N+](=O)[O-])CCCCCC2 [Example 7, 5,6-cyclooctenyl-4-hydroxy-3-nitro-α-pyridone]		15%		37%			17%	59%
CC(C)n1c2c(c(O)c([N+](=O)[O-])c1=O)CCCC2 [Example 10, 4-Hydroxy-1-isopropyl-3-nitro-5,6,7,8-tetrahydrocarbostyril]	5%	0%	8%	16%				
CC1CCc2[nH]c(=O)c([N+](=O)[O-])c(O)c2C1 (centres unmarked) [Example 6, 4-Hydroxy-6-methyl-3-nitro-5,6,7,8-tetrahydrocarbostyril]	1%		24%		15%	37%		
CC1CCc2c([nH]c(=O)c([N+](=O)[O-])c2O)C1 (centres unmarked) [Example 2, 4-Hydroxy-7-methyl-3-nitro-5,6,7,8-tetrahydrocarbostyril]	36%	49%	76%	40%				
CC1Cc2[nH]c(=O)c([N+](=O)[O-])c(O)c2C(C)C1 (centres unmarked) [Example 5, 5,7-dimethyl-4-hydroxy-3-nitro-5,6,7,8-tetrahydrocarbostyril]	27%	14%	72%	42%				
CCCn1c2c(c(O)c([N+](=O)[O-])c1=O)CCCC2 [Example 9, 4-Hydroxy-3-nitro-1-n-propyl-5,6,7,8-tetrahydrocarbostyril]	51%	25%	18%	69%				
CCn1c2c(c(O)c([N+](=O)[O-])c1=O)CCCC2 [Example 8, 1-Ethyl-4-hydroxy-3-nitro-5,6,7,8-tetrahydrocarbostyril]	-5%	14%	12%	75%				
O=c1[nH]c2c(c(O)c1[N+](=O)[O-])CCC2 [Example 3, 5,6-Cyclopenteno-4-hydroxy-3-nitro-α-pyridone]	10%	-20%	28%	6%				
